Measurements: patent US4927835A, “Acylphenol derivatives, useful as anti-inflammatory agents and pain suppressants” (priority 1988, dated 1990)
Read-outs that look alike come from different tables or passages of the source.

Assays:
[1] = Inhibitory action to carrageenin edema (right hind paw); assay type: in vivo, male rats (SD strain); conditions: for ED30: read-out: (1) ED30, carrageenin edema
Procedure: Seven male rats (SD strain; 6 weeks of age) were used in a group. The test compound was administered per os and, after one hour, 0.1 ml of 0.5% λ-carrageenin solution was injected subcutaneously into the right hind paw. After three hours, the volume of the right hind paw was measured with a plethysmometer (UGO-BASILE). The degree of swelling was calculated by subtracting the volume before the carrageenin from the post injection volume.

[2] = Inhibitory action to acetic acid writhing; assay type: in vivo, male mice (ddY strain); conditions: for ED50: po, read-out: (2) ED50, acetic acid writhing
Procedure: Six male mice (ddY strain; five weeks of age) were used in a group. The test compound was administered per os and, after one hour, 0.6% acetic acid was intraperitoneally injected at the dose of 0.1 ml/10 g and the total writhings within 20 minutes thereafter were counted. By comparing the number of writhings of the drug-treated group to that of the control group, the inhibitory rate was obtained and an ED50 value was calculated.

[3] = Inhibitory action to pain by heat stimulation (tail flick); assay type: in vivo, male mice (ddY strain); conditions: mouse, per os; for ED50: po, tail flick at 5, 15, 30, 45 and 60 minutes, read-out: (3) ED50, pain by heat stimulation
Procedure: Ten male mice (ddY strain; five weeks of age) were used in a group. Radiated heat (250 watts; 4 cm distance from the heat source) was applied to the end of the tail of the mice. […] The test compound was administered per os and the time of appearance of the tail flick after 5, 15, 30, 45 and 60 minutes was measured. […] The maximum positive rate among the analgesically positive rates in each measuring time was defined as the analgesically positive rate at that dose and an ED50 value was calculated therefrom.

[4] = Stomach disorder (ulcer generation); parameters: species or system male rats (SD strain); conditions: rat, in vivo, po; for selectivity ratio: ratio UD50/ED50, read-out: Safety Region (UD50 /ED50)
Procedure: Ten male rats (SD strain; five weeks of age) were used in a group. The test compound dissolved or suspended in physiological saline solution was administered to them per os. The animals were than fasted for 17 hours, and 0.5 ml of 5% pontamine sky blue solution was injected intravenously and, after 10 minutes, they were sacrificed with ether. The stomach was removed from the animals, and about 8 ml of 5% formaline solution was injected into the stomach to provide a semifixing. The presence of the […] was checked using a stereoscopic microscope. Rats in which even one ulcer was observed was judged to be positive in ulcer generation and a UD50 value was calculated by a provit method.

Acute toxicity = test: Acute toxicity; parameters: species or system male rats (SD strain); conditions: in vivo, po; rat, per os; 7 days; provit method; read-out: (5) LD50, acute toxicity
Procedure: Test data showing the activity and superiority for compounds representative of those of the present invention is set forth below. In the tests, a representative compound of the present invention, namely 3-(1,1-Dimethylethyl)-4-hydroxy-5-[N-(2-hydroxyethyl)-N-methylaminomethyl]phenyl-2-thienyl ketone, the compound described in Example 4 (the "test compound"), was dissolved or suspended in 0.5% methylcellulose (MC) and administered as described.
Four male rats (SD strain; six weeks of age) were used in a group. The test compound was given per os and, after 7 days, the […] were monitored for life and an LD50 value was calculated by a provit method.

[5] = Analgesic, anti-inflammatory and anti-pyretic activity, summary statement; assay type: in vivo; conditions: from the data in Table 1
[6] = values given in literature; cited from earlier work
[7] = Agents and Actions, vol. 12, page 5, 1982; cited from earlier work
[8] = rat, per os, carrageenin 1 hour after compound, paw volume after three hours
[9] = mouse, per os, 0.6% acetic acid i.p. after one hour, writhings within 20 minutes

| Compound | inhibitory action to carrageenin edema, in words ([1]; rat, per os) | ED30 [1, 8] [mg/kg] | analgesic activity, inflammatory pain (acetic acid writhing), compared with codeine ([2]; mouse, per os) | ED50 [2, 9] [mg/kg] | analgesic activity, non-inflammatory pain (heat stimulation), compared with codeine [3] | ED50 [3] [mg/kg] | TD50 [4] [mg/kg] | selectivity ratio [4] | LD50 at 168 h (Acute toxicity) [mg/kg] | analgesic and anti-inflammatory activity, in words [5] | (3) action on pain by heat stimulation (no ED50) ([3]; at 500 mg/kg) | (5) LD50, acute toxicity [6] [mg/kg] | inhibitory action against carrageenin-induced edema, in words [7] | ED30 ([1]; Rattus norvegicus) [mg/kg] | ED50 ([2]; Mus musculus) [mg/kg] | (3) action on pain by heat stimulation (no ED50) ([3]; at 20 mg/kg) | TD50 ([4]; per os, fasted 17 hours, provit method, read-out: (4) UD50, stomach ulcer generation) [mg/kg] |
| --- | --- | --- | --- | --- | --- | --- | --- | --- | --- | --- | --- | --- | --- | --- | --- | --- | --- |
| CN(CCO)Cc1cc(C(=O)c2cccs2)cc(C(C)(C)C)c1O [Example 4, 3-(1,1-Dimethylethyl)-4-hydroxy-5-[N-(2-hydroxyethyl)-N-methylaminomethyl]phenyl 2-thienyl ketone] | inhibitory action to carrageenin edema | 9.8 | analgesic activity as strong as codeine | 16.4 | analgesic activity as strong as codeine | 47 | 146 | 14.9 | 1000 | strong analgesic and anti-inflammatory activity |  |  |  |  |  |  |  |
| CC(C)(C)c1cc(C(=O)c2cccs2)cc(C(C)(C)C)c1O [Example R-830, 3,5-di-tert-butyl-4-hydroxy-phenyl 2-thienyl ketone] |  | 5.6 |  | 22.4 |  |  | 11.8 | 2.1 |  |  | no action at 500 mg/kg | 1625 | inhibitory action against carrageenin-induced edema |  |  |  |  |
| COc1ccc2c(c1)c(CC(=O)O)c(C)n2C(=O)c1ccc(Cl)cc1 [Indomethacin] |  |  |  |  |  |  |  | 3 |  |  |  |  |  | 0.8 | 2.1 | no action at 20 mg/kg | 2.4 |
| O=C(Cn1c(=O)sc2ccc(Cl)cc21)N1CCN(CCO)CC1 [Thiaramide] |  | 112 |  | 27.3 |  | 108 | 278 | 2.5 |  |  |  | 4700 |  |  |  |  |  |
